Experimental data: patent publication US20220185811A1, “FGFR4 KINASE INHIBITOR AND PREPARATION METHOD THEREFOR AND USE THEREOF” (SHOUYAO HOLDINGS (BEIJING) CO., LTD., priority 2019, published 2022)
Where two headings read alike, the source gives them in different places.

How the values were obtained:
FGFR-4 kinase = FGFR-4 kinase (Homo sapiens, UniProt P22455); assay: FGFR-4 kinase activity, homogeneous time-resolved fluorescence (HTRF) method; format: biochemical; conditions: ATP 25 μM, FGFR-4 kinase 1 nM, read-out: FGFR4 IC50
Method: 1. In vitro determination of the protein activity of compounds: The FGFR-4 kinase activity detection platform was established by the homogeneous time-resolved fluorescence (HTRF) method, and the activity of the compound was determined. 1000 μM compounds were subjected to 3-fold gradient dilution in 100% DMSO 11 times (12 concentrations in total), 4 μL diluent from each concentration was added to 96 μL of reaction buffer (50 mM HEPES, pH 7.4, 5 mM MnCl2, 0.1 mM NaVO3, 0.001% Tween-20, 0.01% BAS, 1 mM DTT) and mixed well, as a 4* compound (final concentration of 0.017 nM-1000 nM) for later use. 2 * FGFR-4 kinase (final concentration of 1 nM) was formulated using reaction buffer and 4*substrate (ATP+TK peptide) (TK peptide, HTRF® KinEASETM-TK, purchased from Cisbio, TK peptide, final concentration of 1 μM, ATP final concentration of 25 μ M) was formulated using reaction buffer. 2.5 μL of 4*compound and then 5 μL of 2 * FGFR-4 kinase were added to a 384-well plate (OptiPlate-384, purchased from PerkinElmer), the mixture was mixed by centrifugation, and 2.5 μL of 4 * substrate mixture was added to start the reaction (total reaction volume of 10 µL). The 384-well plate was placed in an incubator 23° C. and stirred for 60 min before the reaction was stopped by the addition of 5 μL of Eu^3+cryptate-labeled anti-phosphotyrosine antibody (TRF® KinEASE™-TK, purchased from Cisbio) and 5 μL of Streptavidin-XL-665 (HTRF® KinEASE™-TK, purchased from Cisbio). After incubation in the incubator for 1 h, fluorescence values (excitation at 320 nm, detecting emitted light at 665 nm and 620 nm, and a ratio of the two as enzyme activity) were read on Envision (purchased from PerkinElmer). The enzyme activity of each compound was measured at 12 concentrations, and the ICso value of the compound was calculated using GraphPad Prism 5.0 software.
The FGFR-4 kinase activity detection platform was established by homogeneous time-resolved fluorescence (HTRF) method, and the activity of compound was determined. 1000 μM compounds were subjected to 3-fold gradient dilution in 100% DMSO 11 times (12 concentrations in total), 4 μL of diluent from each concentration was added to 96 μL of reaction buffer (50 mM HEPES, pH 7.4, 5 mM MnCl2, 0.1 mM NaVO3, 0.001% Tween-20, 0.01% BAS, 1 mM DTT) and mixed well, as a 4* compound (final concentration of 0.017 nM-1000 nM) for later use. 2 * FGFR-4 kinase (final concentration of 1 nM) was formulated using reaction buffer and 4*substrate (ATP+TK peptide)(TK peptide, HTRF® KinEASE™-TK, purchased from Cisbio, TK peptide, final concentration of 1 μM, ATP final concentration of 25 μM) was formulated using reaction buffer. 2.5 μL of 4 * compound and then 5 μL of 2 * FGFR-4 kinase were added to a 384-well plate (OptiPlate-384, purchased from PerkinElmer), the mixture was mixed by centrifugation, and 2.5 μL of 4 * substrate mixture was added to start the reaction (total reaction volume of 10 μL). The 384-well plate was placed in an incubator 23° C. and stirred for 60 min before the reaction was stopped by the addition of 5 μL of Eu^3+cryptate-labled anti-phosphotyrosine antibody (TRF® KinEASE™-TK, purchased from Cisbio) and 5 μL of Streptavidin-XL-665 (HTRF® KinEASE™-TK, purchased from Cisbio). After incubation in the incubator for 1 h, fluorescence values (excitation at 320 nm, detecting emitted light at 665 nm and 620 nm, and a ratio of the two as enzyme activity) were read on Envision (purchased from PerkinElmer). The enzyme activity of each compopund was measured at 12 concentrations, and the ICso value of the compound was calculated using GraphPad prism 5.0 software.

[1] = system: Human hepatoma cells Hep3b; assay: Cell proliferation inhibition, Cell Titer-Glo; format: cell-based; conditions: 72 h
Method: 2. Determination of cell proliferation activity of compounds:
Cell Titer-Glo ® detection reagent from Promega was used to establish the suspension cell proliferation inhibition screening method. Human hepatoma cells Hep3b (Xiehe Cell Research Center) were cultured in 25 cm^2 or 75 cm^2 plastic tissue culture flasks (Corning®) filled with MEM (Gibco®) medium supplemented with 10% fetal bovine serum (Hyclone®) under 37° C., 95% air and 5% CO2, and subcultured 2-3 times a week.
(§1) Hep3b cells were seeded in a 96-well cell culture plate (Corning®) at a density of 3×10^3 cells/well, […], and cultured under 37° C., 95% air, and 5% CO2. After 24 h the test compound was added: 10 mM compounds (dissolved in DMSO) were subjected to 3-fold gradient dilution in DMSO , […] of diluent from each concentration was added to […] of serum-free medium, and finally […] of compound diluted in the medium was added to the plate seeded with cells. The final concentration of DMSO in the cell culture medium was 0.1% and the final concentration of the test compound was 0.3 nM-[…]. The above cells were incubated for 3 days under 37° C.
After 3 days, the cell viability assay was performed by the Cell Titer-Glo (Promega) kit, and finally, the inhibitory concentration 50% of the compound on cell proliferation, i.e. the IC 50 value, was calculated by the GraphPad Prism 5.0 program.
as §1, with “DMSO,” for “DMSO ,”, “finally,” for “finally”, “of” for “of the”
After 3 days, the cell viability assay was performed by the Cell Titer-Glo (Promega) kit, and finally the inhibitory concentration 50% of the compound on cell proliferation, i.e. the IC 50 value, was calculated by the GraphPad Prism 5.0 program.

[2] = Hep3B, Table 1, 3 days incubation
[3] = Hep3B, Table 2, 3 days incubation

FGFR-4 kinase, sequence (P22455 22-802): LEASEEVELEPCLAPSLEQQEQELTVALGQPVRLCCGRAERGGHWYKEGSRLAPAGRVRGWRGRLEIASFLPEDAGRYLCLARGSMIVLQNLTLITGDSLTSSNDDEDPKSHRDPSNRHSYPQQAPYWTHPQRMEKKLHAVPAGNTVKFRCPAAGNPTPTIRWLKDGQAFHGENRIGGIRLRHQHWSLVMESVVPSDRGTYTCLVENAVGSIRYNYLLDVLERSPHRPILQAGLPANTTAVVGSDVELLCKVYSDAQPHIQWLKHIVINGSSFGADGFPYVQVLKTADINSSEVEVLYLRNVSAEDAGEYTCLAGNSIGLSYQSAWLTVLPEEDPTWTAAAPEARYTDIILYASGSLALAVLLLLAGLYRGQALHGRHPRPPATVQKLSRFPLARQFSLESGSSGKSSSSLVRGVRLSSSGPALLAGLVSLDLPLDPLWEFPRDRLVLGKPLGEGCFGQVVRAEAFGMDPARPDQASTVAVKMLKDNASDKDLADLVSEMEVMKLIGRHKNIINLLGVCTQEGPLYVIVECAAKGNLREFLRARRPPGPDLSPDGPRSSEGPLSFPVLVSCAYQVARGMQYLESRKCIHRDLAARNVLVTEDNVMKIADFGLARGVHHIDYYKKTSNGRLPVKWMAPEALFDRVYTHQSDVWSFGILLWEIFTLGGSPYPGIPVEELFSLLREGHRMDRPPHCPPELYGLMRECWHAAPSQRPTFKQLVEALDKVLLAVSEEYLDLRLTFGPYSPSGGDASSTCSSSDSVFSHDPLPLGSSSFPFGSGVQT

SMILES	IC50 (FGFR-4 kinase; Table 1) [nM]	IC50 [1, 2] [nM]	IC50 (FGFR-4 kinase; Table 2) [nM]	IC50 [1, 3] [nM]	IC50 ([1]; Table 2, 3 days incubation) [nM]
CC#CC(=O)Nc1cc(-c2cc3c(cn2)cc(-c2c(Cl)c(OC)cc(OC)c2Cl)c2nccn23)c(OC)cc1N1CCOCC1 [Example 29, N-(5-(4-(2,6-dichloro-3,5-dimethoxyphenyl)imidazo[1,2-a][1,6]naphthyridin-8-yl)-4-methoxy-2-morpholinophenyl)but-2-ynamide]	2.17	34.4			
CC#CC(=O)Nc1cc(-c2cc3c(cn2)cc(-c2c(Cl)c(OC)cc(OC)c2Cl)c2nccn23)c(OC)cc1N1CCS(=O)(=O)CC1 [Example 30, N-(5-(4-(2,6-dichloro-3,5-dimethoxyphenyl)imidazo[1,2-a][1,6]naphthyridin-8-yl)-2-(1,1-dioxidothiomorpholino)-4-methoxyphenyl)but-2-ynamide]	0.947	46.3			
CC#CC(=O)Nc1cc(-c2cc3c(cn2)cc(-c2c(Cl)c(OC)cc(OC)c2Cl)c2nccn23)c(OC)cc1N1CCC(N2CCOCC2)CC1 [Example 31, N-(5-(4-(2,6-dichloro-3,5-dimethoxyphenyl)imidazo[1,2-a][1,6]naphthyridin-8-yl)-4-methoxy-2-(4-morpholinopiperidin-1-yl)phenyl)but-2-ynamide]	3.63	81.3			
CC#CC(=O)Nc1cc(-c2cc3c(cn2)cc(-c2c(Cl)c(OC)cc(OC)c2Cl)c2nccn23)c(OC)cc1N1CCN(C)C2(CC2)C1 [Example 32, N-(5-(4-(2,6-dichloro-3,5-dimethoxyphenyl)imidazo[1,2-a][1,6]naphthyridin-8-yl)-4-methoxy-2-(4-methyl-4,7-diazaspiro[2.5]octan-7-yl)phenyl)but-2-ynamide]	6.1	76.8			
C=CC(=O)Nc1cc(-c2cc3c(cn2)cc(-c2c(Cl)c(OC)cc(OC)c2Cl)c2nccn23)c(OC)cc1N1CCOCC1 [Example 54, N-(5-(4-(2,6-dichloro-3,5-dimethoxyphenyl)imidazo[1,2-a][1,6]naphthyridin-8-yl)-4-methoxy-2-morpholinophenyl)acrylamide]			0.7		21.5

The next lines start with results.

IC50 (FGFR-4 kinase; Table 1) [nM]	IC50 [1, 2] [nM]	IC50 (FGFR-4 kinase; Table 2) [nM]	IC50 [1, 3] [nM]	SMILES	IC50 ([1]; Table 2, 3 days incubation) [nM]
2.16	107			C=CC(=O)Nc1cc(-c2cc3c(cn2)cc(-c2c(Cl)c(OC)cc(OC)c2Cl)c2nccn23)c(OC)cc1N1CCN(C(C)=O)CC1 [Example 37, N-(2-(4-acetylpiperazin-1-yl)-5-(4-(2,6-dichloro-3,5-dimethoxyphenyl)imidazo[1,2-a][1,6]naphthyridin-8-yl)-4-methoxyphenyl)acrylamide]	
5.03	113			C=CC(=O)Nc1cc(-c2cc3c(cn2)cc(-c2c(Cl)c(OC)cc(OC)c2Cl)c2nccn23)c(OC)cc1N1CC2CCC(C1)O2 [Example 44, N-(2-(8-oxa-3-azabicyclo[3 .2.1]octan-3-yl)-5-(4-(2,6-dichloro-3,5-dimethoxyphenyl)imidazo[1,2-a][1,6]naphthyridin-8-yl)-4-methoxyphenyl)acrylamide]	
		0.9	95.2	C=CC(=O)Nc1cc(-c2cc3c(cn2)cc(-c2c(Cl)c(OC)cc(OC)c2Cl)c2nccn23)c(OC)cc1N1CCN(C#N)CC1 [Example 60, N-(2-(4-cyanopiperazin-1-yl)-5-(4-(2,6-dichloro-3,5-dimethoxyphenyl)imidazo[1,2-a][1,6]naphthyridin-8-yl)-4-methoxyphenyl)acrylamide]	
		0.3	69.7	C=CC(=O)Nc1cc(-c2cc3c(cn2)cc(-c2c(Cl)c(OC)cc(OC)c2Cl)c2nccn23)c(OC)cc1N1CCC(N2CCN(C)CC2)CC1 [Example 64, N-(5-(4-(2,6-dichloro-3,5-dimethoxyphenyl)imidazo[1,2-a][1,6]naphthyridin-8-yl)-4-methoxy-2-(4-(4-methylpiperazin-1-yl)piperidin-1-yl)phenyl)acrylamide]	
		0.9	22.3	C=CC(=O)Nc1cc(-c2cc3c(cn2)cc(-c2c(Cl)c(OC)cc(OC)c2Cl)c2nccn23)c(OC)cc1N1CCN(C2COC2)CC1 [Example 65, N-(5-(4-(2,6-dichloro-3,5-dimethoxyphenyl)imidazo[1,2-a][1,6]naphthyridin-8-yl)-4-methoxy-2-(4-(oxetan-3-yl)piperazin-1-yl)phenyl)acrylamide]	
		0.4	81.3	C=CC(=O)Nc1cc(-c2cc3c(cn2)cc(-c2c(Cl)c(OC)cc(OC)c2Cl)c2nccn23)c(OC)cc1N1CCC(N(C)C)CC1 [Example 67]	
